Reference: patent US20090012148A1, “REDUCING CELLULAR CHOLESTEROL LEVELS AND/OR TREATING OR PREVENTING PHOSPHOLIPIDOSIS” (priority 2005, published 2009)

Columns and labels:
[1] = test system: CT60 cells; assay: Filipin binding assay, LSO compartment ratio (dose dependence, time course); type: cell-based, Chinese hamster
Description: Although the intensity assay was potentially useful, it seemed that additional information in the images could provide better discrimination of wild type vs. NPC cells. For this purpose, we took advantage of the spatial distribution of the filipin labeling of the LSOs, which cluster near the nucleus (FIG. 1B). We applied the second, higher threshold for this bright cluster. We then measured the total fluorescence intensity in the selected LSO objects (high threshold, FIG. 2C) divided by the total number of pixels in cells (low threshold, FIG. 2D).
Image analysis: Images of filipin-stained cells were analyzed using Metamorph Discovery-1 image analysis software. Two different image analysis assays were developed: (1) Average filipin intensity assay and (2) LSO compartment ratio assay. First, to correct for shading an image was created by averaging all of the images from a plate and smoothing the averaged image using a low pass filter. Then each pixel in an image was multiplied by the average intensity of the shading image, and the resulting pixel intensities were divided by the shading image on a pixel-by-pixel basis. Background was subtracted from each shading-corrected image by determining the 5th percentile intensity value of the image and subtracting this value from each pixel in the image. At the plating density used, all fields had at least 5% of the imaged areas that was cell-free. Next, two different thresholds were applied to the filipin images. For the first, a low threshold was set to include all areas occupied by cells. […] A second, higher threshold was set for brightly stained regions in CT60 and/or CT43 cells by selecting bright areas of filipin staining, with the intention of mainly identifying the LSOs in the perinuclear region of the cells. For the Average filipin intensity assay, using the low threshold alone, we measured total filipin intensity above the low threshold divided by the number of pixels above the lower threshold for each field. This gave an average filipin intensity per cell area. For the LSO compartment ratio we measured the total filipin intensity selectively in the region above the higher threshold divided by the number of pixels in the lower threshold. This gave a measure of the total intensity of LSO filipin per cell area.
Dose Dependence: Using the same methods as for the screening, compounds were tested at 10 μM, 3.33 μM, 1.11 μM, 370 nM and 123 nM in four wells each. Batches of selected compounds were purchased from Chemical Diversity, and 10 mM stocks in DMSO were made. A secondary stock plate of 2× concentration (20 μM, 6.66 μM, 2.22 μM, 740 nM and 246 nM) of compounds was prepared in screening medium S. To obtain the final concentrations, […] of this secondary stock was added to the cells in each well containing 30 μl of growth medium A supplemented with 10% FBS. The final DMSO concentration (0.2% v/v) was the same in all wells. Cells were plated at 650 cells per well in 30 μl of growth medium A supplemented with 10% FBS in Costar 384 well plates. After 20 h of incubation in the presence of the compounds, cells were washed with PBS, fixed with PFA and stained with filipin as described for the screening assay. Dose dependence determination of the initial 14 hit compounds from the primary library was done at least 5 times in CT60 cells and 3 times in CT43 cells in separate experiments. Dose dependence determination of the 7 hit compounds from the secondary library was carried out at least 3 times in CT60 cells and 2 times in CT43 cells in separate experiments.
The effects of the compounds were determined at 1.11, 3.33 and 10 μM concentrations after 4, 20 and 48 h using methods similar to the dose dependence. The CT60 cells were seeded in three 384 well plates at 600 cells/well in growth medium on day 1. To maintain the same density of cells at the final time point, compounds were added chronologically. […]

[2] = test system: CT60 cells; assay: Toxicity assay by cell count (Hoechst 33258); type: cell-based, Chinese hamster
Method: To measure toxicity, we treated CT60 and CT43 cells with compounds at 5, 10 and 20 μM for 24 h. The cell number per well was compared to control cells treated with DMSO (FIG. 7). […] Compound 1-a-14 did cause a 50% reduction in cell number at 10 μM for CT60 and an 80% reduction for CT43 cells. Compounds 1-a-4, 5, 6, 8 and 13 were partially toxic as indicated by 20-30% reduction in cell number after 24 h at 10 μM. Procedure Using Cell Count Assay: Compounds were added to CT60 and CT43 cells plated in 384 well plates at 0 (DMSO solvent control), 5, 10 and 20 μM concentrations in quadruplicate using methods similar to the dose dependence assay, except that the cells were stained with Hoechst 33258 nuclear stain. The final DMSO concentration in each well was 0.2%. For the control cells an equivalent amount of DMSO was added to the cells. The cells were incubated for 24, 48 and 72 h. After each time period, cells were washed and then fixed with 1.5% PFA. After washing the cells three times with PBS, the nuclei of the cells were stained using 5 μg/ml Hoechst 33258 (25 mg/ml stock solution in DMSO) in PBS for 45 m at room temperature. Finally, cells were washed three times with PBS, and images were obtained using a Nikon 4× Plan Apo 0.2NA objective. For Hoechst imaging we used the same filter set as for filipin. We collected one 520×696 pixel image per well at 12 intensity bits per pixel. Each pixel is 3.125 by 3.125 μm in […] the object. Cells were counted by defining the standard area of single nuclei (˜200 μm^2) interactively for each plate using the Integrated Morphometry Analysis function of MetaMorph. The number of standard areas per object above a threshold was determined, and the total number of standard areas per image was used as the cell count. The percent reduction in the number of cells compared to DMSO control was calculated for each concentration and time.

SMILES	shape of dose-response curve ([1]; 123 nM to 10 μM)	reduction in cell number ([2]; 10 μM, 24 h) [%]	decrease in the LSO compartment ratio after 4 hr treatment ([1]; 4 hr, 1.1, 3.3 and 10 μM tested)	Lowest Effective Dose (LSO Assay) (−3 SD @ 20 h) [1] [µM]	Cell Count After 24 h @ 10 μM dose Fraction of Control ([2]; 10 μM)	effect below solvent control at 123 nM [1] [SD]	reduction in the number of cells ([2]; 20 μM, 24 h) [%]
CCOc1cccc2cc(-c3csc(Nc4cccc(C(F)(F)F)c4)n3)c(=O)oc12 [Compound 1-a-14]	unusual dose-response curve	50					
CCN(CC)c1ccc(C=C2SC(=S)N(c3ccc(OC)cc3)C2=O)cc1 [Compound 2-a-3]			more than 3 SD	3.33	1.00 Fraction of Control		
COc1ccccc1Nc1nc(Nc2ccccc2OC)nc(Nc2ccccc2OC)n1 [Compound 2-a-9]				370	0.90 Fraction of Control	2	
FC(F)(F)COc1nc(NN=Cc2cccc(I)c2)nc(N(c2ccccc2)c2ccccc2)n1 [Compound 2-a-12]				370	0.67 Fraction of Control	2	75
O=[N+]([O-])c1cccc(C=NNc2nc(Nc3cccc4ccccc34)nc(N(c3ccccc3)c3ccccc3)n2)c1 [Compound 2-a-13]				370	1.00 Fraction of Control		
C=CCN1C(=O)C(=Cc2cc(C)n(-c3ccccc3)c2C)C(C(=O)OC)=C1C [Compound 2-a-15]				3.33	0.94 Fraction of Control		
